{
  "source": "patent US20220127297A1",
  "about": "“Novel Antibacterial 3\"-Derivatives Of 4,6-Disubstituted 2,5-Dideoxystreptamine Aminoglycoside Antibiotics” (AGILeBiotics B.V., priority 2018, published 2022)",
  "data": [
    {"tested_on": "E. coli (AAC(3)IV)", "test": "MIC 50, broth micro-dilution, E. coli expressing AAC(3)IV", "format": "cell-based, Escherichia coli", "details": "ATCC25922 harboring plasmid encoding AAC(3)IV", "summary_of_the_method": "(§1)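 E. coli ATCC 25922 carrying plasmid-borne resistance genes, grown with 50 μg/mL KanaA, were diluted to OD 0.1 in MH2 and exposed to two-fold compound dilutions (64 μM-31.3 nM final) for 18 h at 37° C. OD600 of triplicates was averaged; MIC50 was the first column reaching half maximum growth.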", "units": {"MIC50": "µM"}, "values": [
      {"smiles": "NCC[C@H](O)C(=O)N[C@@H]1C[C@H](N)[C@@H](O[C@H]2O[C@H](CN)[C@@H](O)[C@@H](O)[C@H]2O)[C@H](O)[C@H]1O[C@H]1O[C@H](CO)[C@@H](O)[C@H](N)[C@H]1O", "note": "[ABX3002, 3′Epi-KanaA-AHB]", "MIC50": 32},
      {"smiles": "NCC[C@H](O)C(=O)N[C@@H]1CC(N)[C@@H](O[C@H]2OC(CN)[C@@H](O)CC2N)[C@H](O)C1OC1O[C@H](CO)[C@@H](O)C(N)[C@H]1O", "note": "(some centres unmarked) [ABX5004, Tobra-AHB]", "MIC50": 4},
      {"smiles": "NCCC(O)C(=O)NC1CC(N)C(OC2OC(CN)C(O)C(O)C2N)C(F)C1OC1OC(CO)C(O)C(N)C1O", "note": "(centres unmarked) [ABX4007, KanaB-AHB-F]", "MIC50": "4 to 8"}
    ]},
    {"tested_on": "E. coli (AAC(3)IV)", "test": "MIC 50, broth micro-dilution, E. coli expressing AAC(3)IV", "format": "cell-based, Escherichia coli", "details": "Escherichia coli, ATCC25922, ATCC25922 harboring plasmid encoding AAC(3)IV", "summary_of_the_method": "as §1", "units": {"MIC50": "µM"}, "values": [
      {"smiles": "N=C(NCc1cnc[nH]1)NC1[C@@H](O)C(OC2[C@@H](F)[C@H](O[C@H]3OC(CN)[C@@H](O)CC3N)C(N)C[C@H]2NC(=O)[C@@H](O)CCN)O[C@H](CO)[C@H]1O", "note": "(some centres unmarked) [ABX5050, Tobra-AHB-F-Gua imidazol-5-yl methyl]", "MIC50": "2 to 4"},
      {"smiles": "N=C(NCc1ccncc1)NC1[C@@H](O)C(OC2[C@@H](F)[C@H](O[C@H]3OC(CN)[C@@H](O)CC3N)C(N)C[C@H]2NC(=O)[C@@H](O)CCN)O[C@H](CO)[C@H]1O", "note": "(some centres unmarked) [ABX5048, Tobra-AHB-F-Gua pyridin-4-yl methyl]", "MIC50": "1 to 2"},
      {"smiles": "N=C(N)NC1[C@@H](O)C(OC2[C@@H](F)[C@H](O[C@H]3OC(CN)[C@@H](O)[C@H](O)C3O)C(N)C[C@H]2NC(=O)[C@@H](O)CCN)O[C@H](CO)[C@H]1O", "note": "(stereo partly drawn) [ABX3003, 3′epi-KanaA-AHB-F-Gua]", "MIC50": 4},
      {"smiles": "NCC[C@H](O)C(=O)N[C@@H]1C[C@H](N)[C@@H](O[C@H]2O[C@H](CN)[C@@H](O)[C@H](O)[C@H]2O)[C@H](O)[C@H]1O[C@H]1O[C@H](CO)[C@@H](O)[C@H](N)[C@H]1O", "note": "[Amikacin, amikacin, reference compound]", "MIC50": 8},
      {"smiles": "N=C(N)NC1[C@@H](O)C(OC2[C@@H](F)[C@H](O[C@H]3OC(CNCCO)[C@@H](O)CC3N)C(N)C[C@H]2NC(=O)[C@@H](O)CCN)O[C@H](CO)[C@H]1O", "note": "(some centres unmarked) [ABX5045, 6N-2-hydroxy-ethyl-Tobra-AHB-F-Gua]", "MIC50": 2}
    ]}
  ]
}
